Test results as given in US7258981B2, “Sensitive proteasome sensor constructs and methods for their design and use” (Clontech Laboratories, Inc., priority 2003, dated 2007).
Like-named read-outs stand apart in the source and are kept apart here. Square brackets hold non-standard residues; d marks the D form. Peptide text beside a SMILES is read from it. * marks the point of attachment. Nle = CCCC[C@H](N)C(=O)O; Cbz = O=C(OCc1ccccc1)*

Experiments:
proteasome [1] = assay: Inventive proteasome sensor sensitivity (detection of proteasome inhibitors); type: cell-based; settings: six hour after treatment as benchmark; broadest stated range
Description: In determining sensitivity of his system, in the present application six hour after treating a cell with a proteasome modifying treatment is employed as a benchmark for sensitivity.

proteasome [2] = assay: HEK 293 cells transiently transfected with ZsGreen constructs, MFI by flow cytometry; type: cell-based; settings: HEK 293, transient transfection
Description: (FIGS. 2A&B) To establish if the above proteins are substrate for degradation by the proteasome, HEK 293 cells were transiently transfected with the plasmids and the mean fluorescence intensity (MFI) of the cells was measured by flow cytometry 16 hours after transfection. […] To distinguish between these two possibilities, the transiently transfected cells were treated with ALLN, a well-characterized reversible inhibitor of proteasomal degradation.

proteasome [3] = assay: Stable HEK 293 clone expressing ZsGreend410, fluorescence with or without ALLN; type: cell-based
proteasome [4] = settings: GFP-CL1 fusion; flow cytometry; cited from earlier work
proteasome [5] = settings: GFP-MODC fragment fusion; at 20 hours; flow cytometry; cited from earlier work
proteasome [6] = settings: GFP-Ubiquitin fusion; at 15 hours; flow cytometry (FACS); cited from earlier work

CCCC[C@@H](C=O)NC(=O)[C@H](CC(C)C)NC(=O)[C@H](CC(C)C)NC(C)=O [ALLN] (Ac-Leu-Leu-[Nle]-aldehyde)
detection level of inhibitor by the inventive sensor (proteasome [1]): 50 to 2500 nM | effect of treatment on fluorescence of ZsGreen expressing cells (proteasome [2]): only marginally increases | effect of treatment on fluorescence of pZsGreendl and pZsGreend410-transfected cells (proteasome [2]): increased in a time-dependent fashion | delay before the appearance of fluorescence (proteasome [3]; ZsGreend410-expressing clone, stable transfection): 3 h | effect of treatment on fluorescence of cells stably expressing ZsGreend410 (proteasome [3]; stable HEK 293 clone): sharply increases

CC[C@H](C)[C@H](NC(=O)[C@H]([C@@H](C)CC)N(C)C(C)=O)C(=O)N[C@H](C(=O)N[C@@H](CC(C)C)C(=O)[C@@]1(C)CO1)[C@@H](C)O [Epoxomycin]
detection level of inhibitor by the inventive sensor (proteasome [1]): 1 to 30 nM

CC(=O)N[C@@H](CSC(=O)[C@]1([C@@H](O)C(C)C)NC(=O)[C@H](C)[C@@H]1O)C(=O)O [Lactacystin]
detection level of inhibitor by the inventive sensor (proteasome [1]): 10 to 500 nM | sensitivity achieved (inhibitor concentration) (proteasome [4]): 845 nM | sensitivity achieved (inhibitor concentration) (proteasome [5]): 2.5 µM

CC(C)C[C@@H](C=O)NC(=O)[C@H](CC(C)C)NC(=O)[C@H](CC(C)C)NC(=O)OCc1ccccc1 [MG132] (Cbz-Leu-Leu-Leu-aldehyde)
sensitivity achieved (inhibitor concentration) (proteasome [5]): 2.5 µM

CC(C)C[C@@H](/C=C/S(C)(=O)=O)NC(=O)[C@H](CC(C)C)NC(=O)[C@H](CC(C)C)NC(=O)OCc1ccccc1 [Z-L3-VS]
sensitivity achieved (inhibitor concentration) (proteasome [6]): 4 µM
